The results in this text go back to publication PMC10051811, “Plasma and Cerebrospinal Fluid Concentrations of Micafungin Administered at High Doses in Critically Ill Infants with Systemic Candidiasis: A Pooled Analysis of Two Studies” (Pharmaceuticals, 2023).

The test deals with invasive candidiasis. Put plainly: Microbiological and clinical success of micafungin therapy in infants with invasive candidiasis. The conditions noted are these: 8-15 mg/kg/day iv. The class given is in vivo, human. The protocol: For this pooled analysis, we included data from a total of fifty-three neonates enrolled, aged ≤180 days (from the gestational age corrected at 37 weeks), affected with proven or suspected systemic candidiasis, whereby 3 of them had meningitis, who were treated for at least 14 days with micafungin (Mycamine®) at a dosage ranging from 8 to 15 mg/kg/day intravenously.
The dosage was formulated as a 2 mg/mL solution in 0.9% saline solution and administered intravenously over 1 h once daily. Infants who died within the first 48 h and those with acute or chronic hepatic diseases and/or known hypersensitivity to echinocandins were excluded. Each study with specific inclusion/exclusion criteria and definitions has been described in detail elsewhere.

Structures are written as SMILES. *1 amine or outer side, *2 acyl side, *3 side chain or, on linkers, in order; H or OH if unused. Where a SMILES comes first, the peptide text is derived from it. Bridges are numbered along the chain shown (N, C = ends). [ ]: non-standard residue; d: D form. The star is where a group is joined. hTyr(3S-OH,4S-OH,3'-OSO3H) = N[C@H](C(=O)O)[C@H](O)[C@@H](O)c1ccc(O)c(OS(=O)(=O)O)c1; Orn(4R-OH,5R-OH) = O=C([C@H](C[C@@H](O)[C@@H](O)N[*:3])N[*:1])[*:2]; Pro(3S-OH,4S-Me) = C[C@H]1CN[C@H](C(=O)O)[C@H]1O; X1 = CCCCCOc1ccc(-c2cc(-c3ccc(C(=O)*)cc3)no2)cc1; Gln(3R-OH) = NC(=O)C[C@@H](O)[C@H](N)C(=O)O; Hyp = O=C(O)[C@@H]1C[C@@H](O)CN1

As to `CCCCCOc1ccc(-c2cc(-c3ccc(C(=O)N[C@H]4C[C@@H](O)[C@@H](O)NC(=O)[C@@H]5[C@@H](O)[C@@H](C)CN5C(=O)[C@H]([C@H](O)CC(N)=O)NC(=O)[C@H]([C@H](O)[C@@H](O)c5ccc(O)c(OS(=O)(=O)O)c5)NC(=O)[C@@H]5C[C@@H](O)CN5C(=O)[C@H]([C@@H](C)O)NC4=O)cc3)no2)cc1` [micafungin] (X1-[Orn(4R-OH,5R-OH)]T[Hyp][hTyr(3S-OH,4S-OH,3'-OSO3H)][Gln(3R-OH)][Pro(3S-OH,4S-Me)]; lactam 1-C), under “infants with systemic candidiasis”, the Clinical recovery entry was “all infants clinically recovered”. In addition, under “subjects with invasive candidiasis, mean treatment duration 16.7 days, 95% CI = 51.2–97.9”, the “Microbiological success of the therapy” value was found to be 83.3%.
